Source: US10688093B2, “Methods, compositions, and uses of novel Fyn kinase inhibitors” (priority 2015, dated 2020)

The compounds below were run against full-length recombinant human FYN A (Homo sapiens (Human), UniProt P06241) (assay: ADP-Glo Kinase Assay of FYN kinase inhibition). Details: primary screen, initial compounds.
Assay type: biochemical
Outline: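 GST-tagged full-length FYN A (baculovirus, Sf9) at 3 pg preincubated 30 min RT with compound (10-point 3-fold series from 10 μM) in Tris pH 7.5/MgCl2 buffer. 12-mer tyrosine peptide plus 12.5 pmol ATP added, 90 min RT; ADP measured by ADP-Glo luminescence, IC50 from dose-response.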

Chain of full-length recombinant human FYN A (P06241 whole entry): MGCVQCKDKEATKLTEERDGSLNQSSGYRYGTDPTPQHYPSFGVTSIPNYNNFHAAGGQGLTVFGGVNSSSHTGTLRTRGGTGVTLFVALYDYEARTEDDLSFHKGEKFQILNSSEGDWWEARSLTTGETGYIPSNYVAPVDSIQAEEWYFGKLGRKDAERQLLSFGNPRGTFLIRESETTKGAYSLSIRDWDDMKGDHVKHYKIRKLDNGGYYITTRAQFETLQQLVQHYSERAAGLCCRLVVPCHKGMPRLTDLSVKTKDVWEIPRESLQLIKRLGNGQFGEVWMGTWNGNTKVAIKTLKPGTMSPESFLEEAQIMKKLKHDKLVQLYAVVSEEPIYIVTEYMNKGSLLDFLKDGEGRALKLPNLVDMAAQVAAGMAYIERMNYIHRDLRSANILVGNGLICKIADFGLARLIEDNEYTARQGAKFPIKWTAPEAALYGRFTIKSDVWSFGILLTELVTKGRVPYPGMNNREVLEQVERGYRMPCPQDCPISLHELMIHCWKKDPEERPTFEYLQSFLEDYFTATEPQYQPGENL

IC50	SMILES
0.222 µM	CC(=O)Nc1cccc(-c2cnc3ccc(-c4ccc(C(N)=O)cc4)nn23)c1 [Compound 282, 4-[3-(3-acetamidophenyl)imidazo[1,2-b]pyridazin-6-yl]benzamide]
0.519 µM	CC(=O)Nc1ccc(-c2ccc3ncc(-c4cccc(O)c4)n3n2)cc1 [Compound 283, N-[4-[3-(3-hydroxyphenyl)imidazo[1,2-b]pyridazin-6-yl]phenyl] acetamide]
1.77 µM	COc1cc(-c2cnc3sc(NCCc4ccncc4)nn23)cc(OC)c1OC [Compound 284, N-[2-(4-pyridyl)ethyl]-5-(3,4,5-trimethoxy-phenyl)imidazo [2,1-b][1,3,4] thiadiazol-2-amine]
2.59 µM	COc1ccc(-c2cnc3sc(NCc4ccncc4)nn23)cn1 [Compound 287, 5-(6-methoxy-3-pyridyl)-N-(4-pyridylmethyl) imidazo[2,1-b] [1,3,4]thiadiazol-2-amine]
1.64 µM	CC(=O)Nc1cccc(-c2ccc3ncc(-c4cccc(CO)c4)n3n2)c1 [Compound 288, N-[3-[3-[3-(hydroxymethyl)phenyl]imidazo [1,2-b]pyridazin-6-yl]phenyl] acetamide]
2.46 µM	CN(C)C(=O)c1cccc(-c2cnc3sc(NCc4ccco4)nn23)c1 [Compound 289, 3-[2-(2-furylmethylamino)imidazo[2,1-p] [1,3,4]thiadiazol-5-yl]-N,N-dimethyl-benzamide]
1.1 µM	CC(=O)Nc1cccc(-c2cnc3ccc(-c4ccc(N(C)C)cc4)nn23)c1 [Compound 290, N-[3-[6-(4-dimethylamino-phenyl)imidazo [1,2-a]pyridazin-3-yl]phenyl] acetamide]
2.99 µM	CC(=O)c1cccc(-c2cnc3c(NC=O)cc(-c4ccc(C(=O)N5CCOCC5)cc4)cn23)c1 [Compound 291, N-[3-(3-acetylphenyl)-6-[4-(morpholine-4-carbonyl)phenyl]imidazo[1,2-a]pyridin-8-yl]formamide]
0.83 µM	CS(=O)(=O)Nc1cccc(-c2ccc3ncc(-c4ccc(CO)cc4)n3n2)c1 [Compound 293, N-[3-[3-[4-(hydroxymethyl)phenyl]imidazo [1,2-b]pyridazin-6-yl]phenyl] methane-sulfonamide]
0.994 µM	CC(=O)c1cccc(-c2cnc3ccc(-c4cccc(O)c4)nn23)c1 [Compound 294, 1-[3-[6-(3-hydroxyphenyl)imidazo[1,2-a]pyridazin-3-yl]phenyl] ethanone]
2.23 µM	OCc1ccc(-c2ccc3ncc(-c4cccc(CO)c4)n3n2)cc1 [Compound 295, [4-[3-[3-(hydroxymethyl)phenyl]imidazo [1,2-b]pyridazin-6-yl]phenyl] methanol]
1.89 µM	NC(=O)c1ccc(-c2ccc3ncc(-c4cccc(CO)c4)n3n2)cc1 [Compound 296, 4-[3-[3-(hydroxymethyl)phenyl]imidazo [1,2-b]pyridazin-6-yl]benzamide]
1.48 µM	CN(C)CCNC(=O)c1cccc(-c2cnc3ccc(-c4ccc(CO)cc4)nn23)c1 [Compound 297, N-(2-dimethylamino-ethyl)-3-[6-[4-(hydroxymethyl)phenyl]imidazo [1,2-b]pyridazin-3-yl]benzamide]
0.311 µM	NC(=O)c1cccc(-c2ccc3ncc(-c4cccc(O)c4)n3n2)c1 [Compound 298, 3-[3-(3-hydroxyphenyl)imidazo[1,2-b]pyridazin-6-yl]benzamide]
0.223 µM	COc1cc(-c2ccc3ncc(-c4ccc(CO)cc4)n3n2)ccc1O [Compound 299, 4-[3-[4-(hydroxymethyl)phenyl]imidazo [1,2-b]pyridazin-6-yl]-2-methoxy-phenol]
8.95 µM	COc1ccc(-c2cc(=O)c3cc(O)ccc3o2)cc1OC [Compound 300, 2-(3,4-dimethoxy-phenyl)-6-hydroxy-chromen-4-one]
2.04 µM	OCc1cccc(-c2cnc3ccc(-c4cccnc4)nn23)c1 [Compound 301, [3-[6-(3-pyridyl)imidazo [1,2-b]pyridazin-3-yl]phenyl] methanol]
3.97 µM	OCc1cccc(-c2cnc3ccc(Cc4ccc(F)cc4)nn23)c1 [Compound 302, [3-[6-[(4-fluorophenyl)methyl]imidazo [1,2-b]pyridazin-3-yl]phenyl] methanol]
2.74 µM	COc1cccc(-c2ccc3ncc(-c4cccc(CO)c4)n3n2)c1 [Compound 303, [3-[6-(3-methoxyphenyl)imidazo[1,2-b]pyridazin-3-yl]phenyl] methanol]
0.298 µM	CS(=O)(=O)Nc1cccc(-c2ccc3ncc(-c4ccncc4)n3n2)c1 [Compound 304, N-[3-[3-(4-pyridyl)imidazo [1,2-b]pyridazin-6-yl]phenyl] methane-sulfonamide]
13.7 µM	CN1CCN(c2ccc(Nc3cc4c(cn3)cc(-c3cccnc3)n4Cc3ccccc3)cc2)CC1 [Compound 305, 1-benzyl-N-[4-(4-methyl-piperazin-1-yl)phenyl]-2-(3-pyridyl)pyrrolo [3,2-c]pyridin-6-amine]

IC50	SMILES
7.57 µM	c1ccc(Nc2cc3[nH]c(-c4cn[nH]c4)cc3cn2)nc1 [Compound 306, 2-(1H-pyrazol-4-yl)-N-(2-pyridyl)-1H-pyrrolo[3,2-c]pyridin-6-amine]
4.78 µM	CS(=O)(=O)c1ccc(Nc2cc3[nH]c(-c4cn[nH]c4)cc3cn2)cc1 [Compound 307, N-(4-methyl-sulfonylphenyl)-2-(1H-pyrazol-4-yl)-1H-pyrrolo[3,2-c]pyridin-6-amine]
6.85 µM	c1ccc(Cn2c(-c3cccnc3)cc3cnc(Nc4ccncn4)cc32)cc1 [Compound 308, 1-benzyl-2-(3-pyridyl)-N-pyrimidin-4-yl-pyrrolo[3,2-c]pyridin-6-amine]
16.6 µM	COc1cccc(Nc2cc3[nH]c(-c4cn[nH]c4)cc3cn2)c1 [Compound 309, N-(3-methoxyphenyl)-2-(1H-pyrazol-4-yl)-1H-pyrrolo[3,2-c]pyridin-6-amine]
12.7 µM	COc1ccc(Nc2cc3[nH]c(-c4cn[nH]c4)cc3cn2)cc1OC [Compound 310, N-(3,4-dimethoxy-phenyl)-2-(1H-pyrazol-4-yl)-1H-pyrrolo[3,2-2]pyridin-6-amine]
15 µM	CN1CCN(c2ccc(Nc3cc4c(cn3)cc(-c3ccccc3)n4Cc3ccccc3)cc2)CC1 [Compound 311, 1-benzyl-N-[4-(4-methylpiperazin-1-yl)phenyl]-2-phenyl-pyrrolo[3,2-c]pyridin-6-amine]
0.585 µM	COc1ccccc1-c1ccc2ncc(-c3ccncc3)n2n1 [Compound 312, 6-(2-methoxyphenyl)-3-(4-pyridyl)imidazo [1,2-b]pyridazine]
1.2 µM	NC(=O)c1cccc(-c2ccc3ncc(-c4ccncc4)n3n2)c1 [Compound 313, 3-[3-(4-pyridyl)imidazo [1,2-b]pyridazin-6-yl]benzamide]
0.773 µM	CC(=O)Nc1cccc(-c2cnc3ccc(-c4ccccc4)nn23)c1 [Compound 314, N-[3-(6-phenylimidazo [1,2-b]pyridazin-3-yl)phenyl] acetamide]
1.07 µM	CC(=O)Nc1cccc(-c2cnc3ccc(-c4cccc(O)c4)nn23)c1 [Compound 315, N-[3-[6-(3-hydroxyphenyl)imidazo[1,2-b]pyridazin-3-yl]phenyl] acetamide]
1.04 µM	COc1ccc(-c2cnc3ccc(-c4cccc(F)c4)nn23)cc1OC [Compound 316, 3-(3,4-dimethoxy-phenyl)-6-(3-fluorophenyl) imidazo[1,2-b]pyridazine]
0.494 µM	CC(=O)Nc1cccc(-c2cnc3ccc(-c4ccc(CO)cc4)nn23)c1 [Compound 317, N-[3-[6-[4-(hydroxymethyl)phenyl]imidazo [1,2-b]pyridazin-3-yl]phenyl] acetamide]
1.75 µM	OCc1cccc(-c2cnc3ccc(-c4ccccc4)nn23)c1 [Compound 318, [3-(6-phenylimidazo [1,2-b]pyridazin-3-yl)phenyl] methanol]
0.258 µM	Clc1cccc(-c2ccc3ncc(-c4ccncc4)n3n2)c1 [Compound 319, 6-(3-chlorophenyl)-3-(4-pyridyl)imidazo [1,2-b]pyridazine]
0.222 µM	COc1cc(-c2ccc3ncc(-c4ccc(OC)c(OC)c4)n3n2)ccc1O [Compound 320, 4-[3-(3,4-dimethoxy-phenyl)imidazo [1,2-b]pyridazin-6-yl]-2-methoxy-phenol]
2.85 µM	COc1ccccc1-c1ccc2ncc(-c3cccc(NC(C)=O)c3)n2n1 [Compound 321, N-[3-[6-(2-methoxyphenyl)imidazo[1,2-b]pyridazin-3-yl]phenyl] acetamide]
1.6 µM	CC(=O)Nc1cccc(-c2cnc3ccc(-c4cccc(C(F)(F)F)c4)nn23)c1 [Compound 322, N-[3-[6-[3-(trifluoromethyl)phenyl]imidazo [1,2-b]pyridazin-3-yl]phenyl] acetamide]
1.07 µM	COc1ccccc1-c1ccc2ncc(-c3cccc(CO)c3)n2n1 [Compound 323, [3-[6-(2-methoxyphenyl)imidazo[1,2-b]pyridazin-3-yl]phenyl] methanol]
0.153 µM	COc1cc(-c2ccc3ncc(-c4cccc(CO)c4)n3n2)ccc1O [Compound 324, 4-[3-[3-(hydroxymethyl)phenyl]imidazo [1,2-b]pyridazin-6-yl]-2-methoxy-phenol]
6.93 µM	c1ccc(-c2cnc3ccc(-c4ccncc4)nn23)cc1 [Compound 325, 3-phenyl-6-(4-pyridyl)imidazo [1,2-b]pyridazine]
0.223 µM	Oc1cccc(-c2ccc3ncc(-c4ccncc4)n3n2)c1 [Compound 326, 3-[3-(4-pyridyl)imidazo [1,2-b]pyridazin-6-yl]phenol]

SMILES	IC50
CN(C)C(=O)c1cccc(-c2cnc3sc(NCc4ccccc4)nn23)c1 [Compound 286, 3-[2-(benzylamino)imidazo[2,1-d] [1,3,4]thiadiazol-5-yl]-N,N-dimethyl-benzamide]	1.51 µM
COc1cc(-c2cnc3ccc(-c4cccc(NC(C)=O)c4)nn23)ccc1O [Compound 292, N-[3-[3-(4-hydroxy-3-methoxy-phenyl)imidazo [1,2-b]pyridazin-6-yl]phenyl] acetamide]	0.102 µM
